# Source: PubChem BioAssay AID1963435 (Molecular Pharmacology Branch, DTP, NCI, 2024)
# pIC50: −log10 of the molar value.
# Tested on: PANC-1 complex spheroid growth, percent test/control
# Experiment: Anticancer human tumor PANC-1 cell line growth inhibition [Asc];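 also: spheroids exposed to agents for 7 days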;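 as to viability, T/C: percent viability relative to DMSO vehicle wells taken as 100%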
# Conditions: for pIC50: curve of first compound; for viability, T/C: stronger effect = lower value
# How it was run: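 Complex spheroids combining tumor cells with HUVEC endothelial cells and human MSCs, at 37 degrees C, 5% CO2; agents tested alone or combined, half-log dilutions from at or near clinical Cmax, or 10 microM if Cmax unknown.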
# [1] = second compound 0.0316 µM, first compound 0.0316 µM
# [2] = second compound 0.0316 µM, first compound 0.1 µM
# [3] = second compound 0.0316 µM, first compound 0.316 µM
# [4] = second compound 0.0316 µM, first compound 1 µM
# [5] = second compound 0.1 µM, first compound 0.0316 µM
# [6] = second compound 0.1 µM, first compound 0.1 µM
# [7] = second compound 0.1 µM, first compound 0.316 µM
# [8] = second compound 0.1 µM, first compound 1 µM
# [9] = second compound 0.316 µM, first compound 0.0316 µM
# [10] = second compound 0.316 µM, first compound 0.1 µM
# [11] = second compound 0.316 µM, first compound 0.316 µM
# [12] = second compound 0.316 µM, first compound 1 µM
# [13] = second compound 1 µM, first compound 0.0316 µM
# [14] = second compound 1 µM, first compound 0.1 µM
# [15] = second compound 1 µM, first compound 0.316 µM
# [16] = second compound 1 µM, first compound 1 µM
# [17] = second compound 3.16 µM, first compound 0.0316 µM
# [18] = second compound 3.16 µM, first compound 0.1 µM
# [19] = second compound 3.16 µM, first compound 0.316 µM
# [20] = second compound 3.16 µM, first compound 1 µM
# [21] = second compound 10 µM, first compound 0.0316 µM
# [22] = second compound 10 µM, first compound 0.1 µM
# [23] = second compound 10 µM, first compound 0.316 µM
# [24] = second compound 10 µM, first compound 1 µM
smiles,measurement,setting,value
C#Cc1c(F)ccc2cc(O)cc(-c3ncc4c(N5CC6CCC(C5)N6)nc(OCC56CCCN5CC(F)C6)nc4c3F)c12 (centres undefined) + Cc1c(S(C)(=O)=O)c(-c2cc(F)cc(N3CCN(c4ccc(NS(=O)(=O)c5ccc(NC(CCN6CCC(C(=O)OCCCP(=O)(O)O)CC6)CSc6ccccc6)c(S(=O)(=O)C(F)(F)F)c5)cc4)CC3)c2)c(-c2ccc(Cl)cc2)n1C(C)C,pIC50,second compound 0.0316 µM,< 5.00
same,pIC50,second compound 0.1 µM,< 5.00
same,pIC50,second compound 0.316 µM,< 5.00
same,pIC50,second compound 1 µM,< 5.00
same,pIC50,second compound 3.16 µM,< 5.00
same,pIC50,second compound 10 µM,< 5.00
same,"viability, T/C",[1],86.6%
same,"viability, T/C",[2],84%
same,"viability, T/C",[3],81.4%
same,"viability, T/C",[4],87.2%
same,"viability, T/C","second compound 0.0316 µM, first compound 3.16 µM",83.5%
same,"viability, T/C","second compound 0.0316 µM, first compound 10 µM",72.6%
same,"viability, T/C",[5],84.6%
same,"viability, T/C",[6],80.2%
same,"viability, T/C",[7],74.8%
same,"viability, T/C",[8],80.9%
same,"viability, T/C","second compound 0.1 µM, first compound 3.16 µM",78%
same,"viability, T/C","second compound 0.1 µM, first compound 10 µM",75.3%
same,"viability, T/C",[9],88.7%
same,"viability, T/C",[10],77.5%
same,"viability, T/C",[11],76.2%
same,"viability, T/C",[12],74%
same,"viability, T/C","second compound 0.316 µM, first compound 3.16 µM",88.2%
same,"viability, T/C","second compound 0.316 µM, first compound 10 µM",69.8%
same,"viability, T/C",[13],80.2%
same,"viability, T/C",[14],75.6%
same,"viability, T/C",[15],72.6%
same,"viability, T/C",[16],67.4%
same,"viability, T/C","second compound 1 µM, first compound 3.16 µM",73.7%
same,"viability, T/C","second compound 1 µM, first compound 10 µM",55.3%
same,"viability, T/C",[17],72.4%
same,"viability, T/C",[18],62.9%
same,"viability, T/C",[19],59.9%
same,"viability, T/C",[20],60.1%
same,"viability, T/C","second compound 3.16 µM, first compound 3.16 µM",59%
same,"viability, T/C","second compound 3.16 µM, first compound 10 µM",56.8%
same,"viability, T/C",[21],114%
same,"viability, T/C",[22],103%
same,"viability, T/C",[23],101%
same,"viability, T/C",[24],85.5%
same,"viability, T/C","second compound 10 µM, first compound 3.16 µM",84.9%
same,"viability, T/C","second compound 10 µM, first compound 10 µM",67.9%
CNC(C)C(=O)NC1CN(S(=O)(=O)c2cccc(S(=O)(=O)N3CCC4CCC(C(=O)NC(c5ccccc5)c5ccccc5)N4C(=O)C(NC(=O)C(C)NC)C3)c2)CCC2CCC(C(=O)NC(c3ccccc3)c3ccccc3)N2C1=O (centres undefined) + Cc1c(S(C)(=O)=O)c(-c2cc(F)cc(N3CCN(c4ccc(NS(=O)(=O)c5ccc(NC(CCN6CCC(C(=O)OCCCP(=O)(O)O)CC6)CSc6ccccc6)c(S(=O)(=O)C(F)(F)F)c5)cc4)CC3)c2)c(-c2ccc(Cl)cc2)n1C(C)C,pIC50,second compound 0.0316 µM,< 6.00
same,pIC50,second compound 0.1 µM,< 6.00
same,pIC50,second compound 0.316 µM,< 6.00
same,pIC50,second compound 1 µM,< 6.00
same,pIC50,second compound 3.16 µM,< 6.00
same,pIC50,second compound 10 µM,< 6.00
same,"viability, T/C","second compound 0.0316 µM, first compound 0.00316 µM",100%
same,"viability, T/C","second compound 0.0316 µM, first compound 0.01 µM",92.3%
same,"viability, T/C",[1],97.5%
same,"viability, T/C",[2],94.9%
same,"viability, T/C",[3],98.6%
same,"viability, T/C",[4],91.8%
same,"viability, T/C","second compound 0.1 µM, first compound 0.00316 µM",96.6%
same,"viability, T/C","second compound 0.1 µM, first compound 0.01 µM",98.4%
same,"viability, T/C",[5],105%
same,"viability, T/C",[6],93.8%
same,"viability, T/C",[7],98.6%
same,"viability, T/C",[8],96.9%
same,"viability, T/C","second compound 0.316 µM, first compound 0.00316 µM",98.3%
same,"viability, T/C","second compound 0.316 µM, first compound 0.01 µM",113%
same,"viability, T/C",[9],97.4%
same,"viability, T/C",[10],101%
same,"viability, T/C",[11],103%
same,"viability, T/C",[12],91.9%
same,"viability, T/C","second compound 1 µM, first compound 0.00316 µM",101%
same,"viability, T/C","second compound 1 µM, first compound 0.01 µM",113%
same,"viability, T/C",[13],105%
same,"viability, T/C",[14],102%
same,"viability, T/C",[15],109%
same,"viability, T/C",[16],88.9%
same,"viability, T/C","second compound 3.16 µM, first compound 0.00316 µM",104%
same,"viability, T/C","second compound 3.16 µM, first compound 0.01 µM",104%
same,"viability, T/C",[17],103%
same,"viability, T/C",[18],94.9%
same,"viability, T/C",[19],98.5%
same,"viability, T/C",[20],90.7%
same,"viability, T/C","second compound 10 µM, first compound 0.00316 µM",173%
same,"viability, T/C","second compound 10 µM, first compound 0.01 µM",183%
same,"viability, T/C",[21],173%
same,"viability, T/C",[22],160%
same,"viability, T/C",[23],185%
same,"viability, T/C",[24],158%
